Reference: article PMC6212544, “Identification and Characterization of Novel CFTR Potentiators” (Frontiers in Pharmacology, 2018)

Columns and labels:
F508del CFTR [1] = target: T1, F508del CFTR (Homo sapiens, UniProt P13569, DEL508-508); test: YFP halide assay, CFBe41o- cells, low temperature rescued F508del CFTR; type: cell-based; conditions: 27°C 24 h, 10 μM forskolin, read-out: EC50, potentiation of low temperature rescued F508del CFTR
Procedure: CFBe41o- cells were plated in black 384-well microplates at a density of 1,500 cells per well. After 24 h, cells were transduced with adenoviruses containing F508del CFTR and YFP (H148Q/I152L/) F47L using a multiplicity of infection of 30 infectious units per cell for each adenovirus. The next day, for the low temperature corrected assay, cells were incubated at 27°C for 24 h, for the chemically corrected assay cells were treated with corrector for 24 h at 37°C. On the day of analysis, cells were washed five times with Dulbecco’s Phosphate-Buffered Saline (DPBS) containing Ca^2+ and Mg^2+ (Life Technologies) using a Microplate Washer (BioTek). Then, cells were treated with 10 μM forskolin and the desired concentration of potentiator in a volume of 30 μl and the plates were incubated at room temperature for 10 min, a timepoint optimized in previous experiments showing good window (positive control/negative control > 2) and signal to background ratio. The YFP fluorescence was recorded for 2 min, starting immediately before addition of 30 μl NaI buffer (375 mM NaI, 7.5 mM KI, 1.76 mM KH2PO4, 10.1 mM Na2HPO4, 13.75 mM glucose) to the wells, using a FDSS/μCell (Hamamatsu) fluorescence reader with a 480 nm excitation filter and a 540 nm emission filter. The capacity of potentiators to increase CFTR channel function was expressed as 1-[fluorescence 36 s after NaI addition (F)/fluorescence before NaI addition (F0)], a timepoint optimized previously, resulting in an optimal signal window. Data was normalized using the formula: normalized response = 100^∗ (absolute response – negative control response)/(VX770 response – negative response) as such, VX770 response corresponds to 100. For Dose-response experiments, data was fitted using a 4 parameter hill function of the form Response = Bottom + (Top-Bottom)/(1 + 10ˆ((LogEC50-concentration)^∗HillSlope)) to determine EC50 values.

G551D CFTR = target: T2, G551D CFTR (Homo sapiens, UniProt P13569, G551D); conditions: ref Jih and Hwang (2013); cited from earlier work
T2 construct: expressed in transfected cells; host or cells: HEK293, transient (jetPEI)
T2 sequence (P13569 whole entry G551D): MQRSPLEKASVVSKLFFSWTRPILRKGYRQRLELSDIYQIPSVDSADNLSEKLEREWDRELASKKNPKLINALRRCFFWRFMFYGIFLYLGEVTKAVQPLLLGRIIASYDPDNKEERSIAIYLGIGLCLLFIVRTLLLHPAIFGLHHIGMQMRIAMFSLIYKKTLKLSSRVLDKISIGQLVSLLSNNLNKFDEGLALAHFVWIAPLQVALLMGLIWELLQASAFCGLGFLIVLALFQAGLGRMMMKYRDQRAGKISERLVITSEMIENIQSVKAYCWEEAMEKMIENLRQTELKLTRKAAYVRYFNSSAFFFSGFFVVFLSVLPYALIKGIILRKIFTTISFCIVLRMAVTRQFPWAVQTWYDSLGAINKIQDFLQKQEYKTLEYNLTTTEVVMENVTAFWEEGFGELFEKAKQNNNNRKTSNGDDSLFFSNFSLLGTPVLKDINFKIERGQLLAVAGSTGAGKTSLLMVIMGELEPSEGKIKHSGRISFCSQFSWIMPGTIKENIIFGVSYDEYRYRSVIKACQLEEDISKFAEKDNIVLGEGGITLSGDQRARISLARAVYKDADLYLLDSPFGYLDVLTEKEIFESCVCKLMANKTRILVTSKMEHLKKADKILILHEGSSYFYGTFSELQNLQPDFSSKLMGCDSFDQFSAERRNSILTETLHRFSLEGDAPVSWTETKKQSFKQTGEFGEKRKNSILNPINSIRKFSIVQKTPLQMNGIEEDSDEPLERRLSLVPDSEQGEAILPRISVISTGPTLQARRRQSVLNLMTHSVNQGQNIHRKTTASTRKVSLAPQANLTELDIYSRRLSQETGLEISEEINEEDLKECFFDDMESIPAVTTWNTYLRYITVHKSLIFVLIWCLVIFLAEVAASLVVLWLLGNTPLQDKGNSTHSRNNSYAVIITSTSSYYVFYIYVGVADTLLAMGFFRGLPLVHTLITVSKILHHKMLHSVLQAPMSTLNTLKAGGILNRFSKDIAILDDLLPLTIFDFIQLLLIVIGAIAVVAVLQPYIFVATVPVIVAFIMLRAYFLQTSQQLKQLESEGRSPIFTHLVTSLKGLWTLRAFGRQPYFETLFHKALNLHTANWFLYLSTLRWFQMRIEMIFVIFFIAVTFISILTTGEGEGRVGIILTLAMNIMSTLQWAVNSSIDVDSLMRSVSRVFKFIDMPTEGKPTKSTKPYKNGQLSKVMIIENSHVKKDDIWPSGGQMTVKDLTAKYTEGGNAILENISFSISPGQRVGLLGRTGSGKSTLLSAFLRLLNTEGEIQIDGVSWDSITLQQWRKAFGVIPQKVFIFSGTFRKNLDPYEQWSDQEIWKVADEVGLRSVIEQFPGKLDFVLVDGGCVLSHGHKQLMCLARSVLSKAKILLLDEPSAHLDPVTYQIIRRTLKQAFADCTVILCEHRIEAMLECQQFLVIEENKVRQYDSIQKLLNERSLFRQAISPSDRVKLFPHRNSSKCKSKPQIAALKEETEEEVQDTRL

[2] = patients carrying the G551D mutation; ref Ramsey et al., 2011; cited from earlier work
F508del CFTR [3] = target: T1, F508del CFTR; test: Cell surface expression assay, HRP-tagged F508del CFTR in CFBe41o- cells; type: cell-based; parameters: expressed in transfected cells; conditions: 24 h co-incubation with 10 μM VX809, concentration range of potentiator
Procedure: CFBE41o^- TetON cells expressing HRP tagged F508del-CFTR ([Veit et al., 2012]) were seeded at a density of 4,000 cells per well in white 384-well plates (Greiner). Medium containing 500 ng/ml doxycycline was used to induce expression of the F508del-CFTR–HRP construct. After 3 days, cells were treated with corrector and/or potentiator compounds and transferred to an incubator at 33°C. On day 4, cells were washed 5 times with PBS containing Ca^2+ and Mg^2+ using a Bio-Tek plate washer and incubated with a chemiluminescent HRP substrate (SuperSignal West Pico Chemiluminescent Substrate, Thermo Scientific) for 15 min. Chemiluminescence was measured using an Envision plate reader (Perkin Elmer).

F508del CFTR [4] = target: T1, F508del CFTR; test: TECC on corrector rescued F508del/F508del primary HBE cells; type: cell-based; parameters: endogenous in cells; host or cells: primary human bronchial epithelial cells, F508del/F508del donors (McGill University; University of North Carolina)
Procedure: Bronchial epithelial cells isolated from transplanted lungs from wild-type (WT), CF patients homozygous for the F508del mutation or heterozygous G551D/F508del or R334W/F508del patients, were obtained from McGill University (Montreal, Canada) and University of North Carolina (Chapel Hill, NC, United States). Cells were isolated from lungs obtained from donors undergoing a planned transplantation. These primary cells were cultured directly on type IV collagen-coated polycarbonate Transwell supports with a diameter of 6.5 mm and pore size of 0.4 μm (Costar, #3397) for 18–25 days in air liquid (ali) interface essentially as previously described ([Fulcher et al., 2005]). Trans-epithelial clamp circuit (TECC) recordings were performed using the TECC instrument developed and sold by EP Design (Bertem, Belgium). During the recording, the epithelial cells were bathed in a NaCl-Ringer solution (120 mM NaCl, 20 mM HEPES, 1.2 mM CaCl2, 1.2 mM MgCl2, 0.8 mM KH2PO4, 0.8 mM K2HPO4, 5 mM glucose, pH 7.4) on both the basolateral (640 μl) and the apical side (160 μl) and kept at 37°C. Apical amiloride was used to inhibit the endogenous ENaC currents (100 μM) while forskolin (10 μM) was applied on both the apical and basolateral sides to stimulate CFTR. All triggers and compounds used during the experiment were first dissolved in DMSO to a 1000 X concentrated solution, just prior to treatment a 10 X stock was prepared in the NaCl-Ringer solution which was used for addition of the correct concentration of trigger and or compound during the experiment. When using the F508del CFTR mutant, VX809 (3 μM) or GLPG2222 (1 μM) corrector was added on the basolateral side for 24 h to partially rescue F508del CFTR before adding the potentiator. For chronic experiments, the potentiator range was also added to the cells for 24 h and reapplied in the NaCl-ringer buffer prior to the electrophysiological recording. Measurements were done during a 20 min timeframe with recordings every 2 min. The transepithelial potential (PD) and transepithelial resistance (Rt) were measured in an open circuit and transformed to Ieq using Ohm’s law. The increase in Ieq (Δ Ieq) was used as a measure for the increased CFTR activity. EC50 values were generated by measuring impact of different concentrations of compound on Ieq in primary cells. For this purpose each transwell was treated with a different compound concentration. CFTRInh-172 was used at 10 μM to assess the specificity of the response. […] Data was fitted using a 3 parameter hill function of the form Response = Bottom + (Top-Bottom)/(1 + 10ˆ((LogEC50-concentration))) to determine EC50 values.

T1 sequence (P13569 with tags, fused parts or gaps DEL508-508): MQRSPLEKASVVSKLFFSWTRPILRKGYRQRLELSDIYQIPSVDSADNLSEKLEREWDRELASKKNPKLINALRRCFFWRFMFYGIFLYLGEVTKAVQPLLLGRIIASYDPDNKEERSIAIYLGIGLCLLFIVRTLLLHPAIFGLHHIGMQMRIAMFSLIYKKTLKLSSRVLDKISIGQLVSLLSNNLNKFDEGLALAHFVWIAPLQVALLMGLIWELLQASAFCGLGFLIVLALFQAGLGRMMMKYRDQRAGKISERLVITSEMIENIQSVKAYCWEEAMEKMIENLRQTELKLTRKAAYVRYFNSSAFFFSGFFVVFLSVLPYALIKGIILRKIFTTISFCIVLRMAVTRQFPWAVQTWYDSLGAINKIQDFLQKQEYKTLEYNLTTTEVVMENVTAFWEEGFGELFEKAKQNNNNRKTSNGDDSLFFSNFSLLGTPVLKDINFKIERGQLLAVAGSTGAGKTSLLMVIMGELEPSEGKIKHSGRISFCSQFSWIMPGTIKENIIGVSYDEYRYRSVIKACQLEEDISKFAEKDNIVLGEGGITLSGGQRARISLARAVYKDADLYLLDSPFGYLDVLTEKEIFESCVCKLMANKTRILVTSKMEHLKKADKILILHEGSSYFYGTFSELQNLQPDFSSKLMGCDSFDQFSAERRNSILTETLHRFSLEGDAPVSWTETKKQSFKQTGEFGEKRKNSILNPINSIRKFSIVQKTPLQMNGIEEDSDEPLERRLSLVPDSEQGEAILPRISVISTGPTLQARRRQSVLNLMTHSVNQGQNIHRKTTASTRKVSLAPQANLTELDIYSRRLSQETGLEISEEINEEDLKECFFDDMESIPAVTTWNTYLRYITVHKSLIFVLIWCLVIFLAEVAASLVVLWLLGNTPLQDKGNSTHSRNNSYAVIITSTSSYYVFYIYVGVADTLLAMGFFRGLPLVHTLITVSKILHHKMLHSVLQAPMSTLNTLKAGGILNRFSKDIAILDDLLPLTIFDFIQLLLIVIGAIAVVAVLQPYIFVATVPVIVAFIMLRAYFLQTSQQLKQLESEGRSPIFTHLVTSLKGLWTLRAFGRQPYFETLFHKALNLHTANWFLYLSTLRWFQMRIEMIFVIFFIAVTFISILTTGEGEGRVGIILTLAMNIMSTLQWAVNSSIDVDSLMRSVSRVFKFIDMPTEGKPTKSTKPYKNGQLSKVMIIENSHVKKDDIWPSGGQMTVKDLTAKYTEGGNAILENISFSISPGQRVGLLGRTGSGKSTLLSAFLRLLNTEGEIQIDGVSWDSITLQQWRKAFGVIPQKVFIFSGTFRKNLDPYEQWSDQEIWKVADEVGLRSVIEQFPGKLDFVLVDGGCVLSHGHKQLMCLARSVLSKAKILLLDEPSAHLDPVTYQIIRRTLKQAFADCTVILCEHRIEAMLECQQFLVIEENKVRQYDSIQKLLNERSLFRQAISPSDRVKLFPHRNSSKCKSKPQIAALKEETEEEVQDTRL

EC50 (F508del CFTR [1]): 0.126 ± 0.0109 µM
EC50 (F508del CFTR [4]; VX809 3 μM 24 h, acute potentiator addition, 10 μM forskolin, read-out: EC50 on VX809 corrected F508del/F508del HBEs (TECC)): 0.0807 ± 0.0217 µM
Structure (SMILES): CC(C)(C)c1cc(C(C)(C)C)c(NC(=O)c2c[nH]c3ccccc3c2=O)cc1O [VX770, N -(2,4-Di-tert-butyl-5-hydroxyphenyl)-4-oxo-1,4-dihydroquinoline-3-carboxamide, reference compound]
Increase of macroscopic G551D CFTR current (G551D CFTR): 10 fold
Improvement of lung function [2]: 10.6%
Effect on cell surface expression of VX809 rescued F508del CFTR (F508del CFTR [3]): reduces the level of cell surface expressed F508del CFTR at all concentrations tested
Decrease in corrected F508del CFTR channel activity in chronic versus acute setting (F508del CFTR [4]; 10 μM potentiator, corrected F508del/F508del HBE, 24 h): decrease in F508del CFTR channel activity
